Among the data in patent publication US7750048B2, “GPR40 agonists” (Janssen Pharmaceutica NV, priority 2006, dated 2010) are EC50 values, retold here.

Where “and” joins values, the source holds several entries; their conditions need not be identical. Equal entries are not always repeated. Some results are limits rather than exact numbers.

The target in the assay is T1, GPR40 receptor (Homo sapiens, UniProt O14842).
T1 construct: expressed in transfected cells; host or cells: HEK293 (clone hGPR40-32)
T1 sequence (O14842 whole entry): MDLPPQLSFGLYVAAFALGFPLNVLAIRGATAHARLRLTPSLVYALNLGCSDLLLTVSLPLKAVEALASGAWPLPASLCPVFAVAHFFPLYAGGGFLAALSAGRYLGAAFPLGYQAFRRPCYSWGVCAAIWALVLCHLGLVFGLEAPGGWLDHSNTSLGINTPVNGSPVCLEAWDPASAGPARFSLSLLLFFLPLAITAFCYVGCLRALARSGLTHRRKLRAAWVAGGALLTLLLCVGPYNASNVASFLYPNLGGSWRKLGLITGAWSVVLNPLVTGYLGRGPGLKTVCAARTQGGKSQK
The experiment in a line: GPR40 in vitro assay: calcium mobilization in transfected HEK293/hGPR40-32 cells (FDSS6000). The settings on record: several values in one cell are separate determinations, read-out: ED50 (the source's name). Format: cell-based. Here is the method:
To identify agonists of GPR40 receptor, the following assay was used to measure FFA-induced calcium mobilization in transfected cell lines HEK293/hGPR40-32: • Plate 20,000 cell/well in Corning 384 well plate (Cat# 3712); • Incubate over night (16 to 24 hours); • Remove medium; • Add 40 μl of 1×BD dye (1× signal enhancer, 1× calcium indicator dye, 1× probenecid, 0.01% BSA in DMEM/F12 media without Phenol Rad); • Incubate 30 minutes at 37° C. and 15 minutes at RT; • Read with the FDSS6000 System; • Add 20 μl of test compound (in 0.01% BSA in DMEM/F12 media without Phenol Rad); • Read for 5 minutes; • Add 20 μl of 40 μM linolenic acid or GPR40 agonist (in 0.01% BSA in DMEM/F12 media without Phenol Rad); • Read for 2 minutes.
Percentage Inhibition and/or ED50 were calculated following conventional methods.
Background: Calcium flux is commonly read through the fluorescence of an indicator in the cells.
Take `CCCCOc1ccc(C(CC(=O)O)c2ccc(OC(F)(F)F)cc2)cc1` (stereo not drawn) [Compound 26, 3-(4-Butoxy-phenyl)-3-(4-trifluoromethoxy-phenyl)-propionic acid]: the EC50 is over 10000 nM.

As for `CC[C@H](C)COc1ccc(C(CC(=O)O)c2ccccc2)cc1` (single isomer, unassigned) [Compound 19, 3-[4-(2-Methyl-butoxy)-phenyl]-3-phenyl-propionic acid], the EC50 was over 10000 nM. The same measure for `COCCCOc1ccc(C(CC(=O)O)c2ccccc2)cc1` (stereo not drawn) [Compound 10, 3-[4-(3-methoxy-propoxy)-phenyl]-3-phenyl-propionic acid]: 7580 nM. Take `CC[C@@H](C)COc1ccc(C(CC(=O)O)c2ccccc2)cc1` (single isomer, unassigned) [Compound 18, 3-[4-(2-Methyl-butoxy)-phenyl]-3-phenyl-propionic acid]: the EC50 was over 10000 nM. In the case of `CCCCCOc1ccc(C(CC(=O)O)c2ccccc2)cc1` (stereo not drawn) [Compound 3, 3-(4-Pentyloxy-phenyl)-3-phenyl-propionic acid] it was 3300 nM and 4200 nM and 1400 nM; in that of `CCCOc1ccc(C(CC(=O)O)c2ccccc2)cc1` (stereo not drawn) [Compound 1, 3-Phenyl-3-(4-propoxy-phenyl)-propionic acid], 3700 nM. In the case of `CCC(CC)Oc1ccc(C(CC(=O)O)c2ccccc2)cc1` (stereo not drawn) [Compound 25, 3-[4-(1-Ethyl-propoxy)-phenyl]-3-phenyl-propionic acid] it was over 10000 nM; in that of `CCCCOc1ccc(C(CC(=O)O)c2cccc(F)c2)cc1` (stereo not drawn) [Compound 20, 3-(4-Butoxy-phenyl)-3-(3-fluoro-phenyl)-propionic acid], 1440 nM; in that of `CC1CCC(Oc2ccc(C(CC(=O)O)c3ccccc3)cc2)CC1` (stereo not drawn) [Compound 13, 3-[4-(4-Methyl-cyclohexyloxy)-phenyl]-3-phenyl-propionic acid], 7320 nM.

In the case of `CC[C@H](C)COc1ccc(C(CC(=O)O)c2ccccc2)cc1` (single isomer, unassigned) [Compound 17, 3-[4-(2-Methyl-butoxy)-phenyl]-3-phenyl-propionic acid], the EC50 came to 560 nM. On to `O=C(O)CC(c1ccccc1)c1ccc(OCCCC(F)(F)F)cc1` (stereo not drawn) [Compound 6, 3-Phenyl-3-[4-(4,4,4-trifluoro-butoxy)-phenyl]-propionic acid], for which the EC50 was 3160 nM. The same measure for `CCCCOc1ccc(C(CC(=O)O)c2ccccc2O)cc1` (stereo not drawn) [Compound 22, 3-(4-Butoxy-phenyl)-3-(2-hydroxy-phenyl)-propionic acid]: 4800 nM; for `CCCCCCOc1ccc(C(CC(=O)O)c2ccccc2)cc1` (stereo not drawn) [Compound 4, 3-(4-Hexyloxy-phenyl)-3-phenyl-propionic acid]: 2880 nM. Turning to `C=C(C)CCOc1ccc(C(CC(=O)O)c2ccccc2)cc1` (stereo not drawn) [Compound 8, 3-[4-(3-Methyl-but-3-enyloxy)-phenyl]-3-phenyl-propionic acid], the EC50 stood at 2710 nM. Regarding `CCCCOc1ccc(C(CC(=O)O)c2cccs2)cc1` (stereo not drawn) [Compound 23, 3-(4-Butoxy-phenyl)-3-thiophen-2-yl-propionic acid], the EC50 was 960 nM and 1610 nM. With `CCC(C)COc1ccc(C(CC(=O)O)c2ccccc2)cc1` (stereo not drawn) [Compound 12, 3-[4-(2-Methyl-butoxy)-phenyl]-3-phenyl-propionic acid], the EC50 was 330 nM and 260 nM.

On to `CCCCOc1ccc(C(CC(=O)O)c2ccccc2)cc1` (stereo not drawn) [Compound 2, 3-(4-Butoxy-phenyl)-3-phenyl-propionic acid], for which the EC50 is 1430 nM and 960 nM. In the case of `CC=CCOc1ccc(C(CC(=O)O)c2ccccc2)cc1` (stereo not drawn) [Compound 9, 3-(4-But-2-enyloxy-phenyl)-3-phenyl-propionic acid] it was 2710 nM. In the case of `CC[C@@H](C)COc1ccc(C(CC(=O)O)c2ccccc2)cc1` (single isomer, unassigned) [Compound 16, 3-[4-(2-Methyl-butoxy)-phenyl]-3-phenyl-propionic acid] it was 710 nM. In the case of `CC(C)(C)CCOc1ccc(C(CC(=O)O)c2ccccc2)cc1` (stereo not drawn) [Compound 28, 3-[4-(3,3-Dimethyl-butoxy)-phenyl]-3-phenyl-propionic acid] it was over 10000 nM; in that of `CCC(CC)COc1ccc(C(CC(=O)O)c2ccccc2)cc1` (single isomer, unassigned) [Compound 15, 3-[4-(2-Ethyl-butoxy)-phenyl]-3-phenyl-propionic acid], 850 nM; in that of `CCCCOc1ccc(C(CC(=O)O)c2cccc(C(F)(F)F)c2)cc1` (stereo not drawn) [Compound 21, 3-(4-Butoxy-phenyl)-3-(3-trifluoromethyl-phenyl)-propionic acid], 2840 nM.

On to `CCC(CC)COc1ccc(C(CC(=O)O)c2ccccc2)cc1` (single isomer, unassigned) [Compound 14, 3-[4-(2-Ethyl-butoxy)-phenyl]-3-phenyl-propionic acid], for which the EC50 is over 30000 nM. As to `COCCOc1ccc(C(CC(=O)O)c2ccccc2)cc1` (stereo not drawn) [Compound 24, 3-[4-(2-Methoxy-ethoxy)-phenyl]-3-phenyl-propionic acid], the EC50 is over 10000 nM. For the compound `CCC(CC)COc1ccc(C(CC(=O)O)c2ccccc2)cc1` (racemic) [Compound 11, 3-[4-(2-Ethyl-butoxy)-phenyl]-3-phenyl-propionic acid], the EC50 stood at 640 nM. As to `CCCCCCCOc1ccc(C(CC(=O)O)c2ccccc2)cc1` (stereo not drawn) [Compound 5, 3-(4-Heptyloxy-phenyl)-3-phenyl-propionic acid], the EC50 amounted to 4260 nM. For `CC(C)CCOc1ccc(C(CC(=O)O)c2ccccc2)cc1` (stereo not drawn) [Compound 7, 3-[4-(3-Methyl-butoxy)-phenyl]-3-phenyl-propionic acid], the EC50 is 1810 nM and 2580 nM and 1180 nM.
